Results as given in PMC9051593, “Glucagonlike Peptide-1 Receptor Imaging in Individuals with Type 2 Diabetes” (Journal of Nuclear Medicine, 2022).
Where two headings read alike, the source gives them in different places. Each block holds one substance with its values, some of them ahead of it.

Assays:
GLP1R [1] = settings: in words; cited from earlier work
Protocol: (§1) In the absence of suitable antagonists, agonists such as exendin4 can be used as PET tracers, but care must be taken to avoid unwanted pharmacologic effects. […] Doses of around 0.5 µg/kg elicit up to 50% blocking of the signal.

GLP1R [2] = settings: in words, cited from earlier work
Protocol: as §1, with “Exendin4 is a synthetic peptide that binds to GLP1R with nanomolar affinity and high specificity ([4]). […] In” for “In”

[3] = set-up: species or system human; settings: in vivo; for Plasma-to-blood ratio: human, iv, 0.5 MBq/kg
Protocol: Dynamic PET was initiated at administration and continued for 60 min. Blood sampling for glucose was performed before and during the scan as a safety precaution, as exendin4 can stimulate insulin secretion at pharmacologic doses. For 3 individuals, arterial sampling was performed at 5, 30, and 60 min after ^68Ga-exendin4 administration to measure the radioactivity in whole blood and plasma and to determine the metabolic stability of the tracer (the methods are shown in the supplemental materials, available at http://jnm.snmjournals.org) (17). Abdominal tissues of interest, including pancreas (target tissue), aorta (input signal), kidney (excretion), and spleen and erector spinae muscle (negative reference tissues) were manually segmented on coregistered PET/CT images using […] software, version 2.9 (Turku PET Center). The aorta was delineated by segmenting single voxels fully within the lumen of the descending aorta. The arterial plasma image-derived input function was generated by correcting the aorta signal for plasma-to-whole-blood partitioning and for the percentage of intact ^68Ga-exendin4 during the scan (based on a population estimate).

GLP1R [4] = biological target: T1, GLP1R (Macaca fascicularis, UniProt F8V479); assay: 68Ga-exendin4 PET dose escalation (self-blocking) study in NHP pancreas, Logan Vt; format: in vivo, cynomolgus NHPs; settings: Vt of 68Ga-exendin4 vs coinjected unlabeled precursor peptide dose, 12 scans, estimated
T1 construct: from tissue; host or cells: pancreas of living cynomolgus monkeys (in vivo PET)
T1 sequence (F8V479 24-463): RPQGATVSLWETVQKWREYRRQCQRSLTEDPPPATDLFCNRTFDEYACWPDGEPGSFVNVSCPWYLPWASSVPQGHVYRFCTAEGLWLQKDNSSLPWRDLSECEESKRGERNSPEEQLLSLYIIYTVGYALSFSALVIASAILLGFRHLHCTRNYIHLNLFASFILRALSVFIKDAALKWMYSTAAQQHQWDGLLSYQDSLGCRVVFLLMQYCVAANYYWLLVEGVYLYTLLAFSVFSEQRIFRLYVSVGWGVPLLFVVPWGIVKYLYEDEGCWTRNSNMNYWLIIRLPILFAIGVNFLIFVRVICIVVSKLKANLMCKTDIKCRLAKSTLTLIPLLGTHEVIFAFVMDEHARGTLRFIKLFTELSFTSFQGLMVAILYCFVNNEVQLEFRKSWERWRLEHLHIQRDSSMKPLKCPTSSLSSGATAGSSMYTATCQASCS
Protocol: A ^68Ga-exendin4 PET/CT imaging study on healthy cynomolgus NHPs was in part reported and described in detail previously ([5]). Briefly, NHPs were scanned by ^68Ga-exendin4 PET using a dose escalation study design in which several examinations were performed, several hours apart, over the course of one or several experimental days. Each subsequent scan entailed a higher peptide mass and radioactive dose to minimize influence from the preceding scan (Table 1). The resulting dataset enabled analysis of the self-blocking effect of the increasing amounts of coinjected unlabeled exendin4 precursor peptide.
Previously, only the simplified SUV analysis of 3 of the NHPs (8 scans) was reported ([5]). In preparation for the design of the clinical study, to better understand the peptide doses at which self-blocking starts to occur, we reanalyzed the dynamic NHP data from all 12 scans by graphical analysis using an image-derived blood plasma input.
Pancreas and other tissues of interest (such as spleen as a negative reference tissue) were delineated using PMOD, version 4.0 (PMOD Technologies). The PET signal for each tissue and time frame was corrected for the injected amount, and the image-derived input function was extracted by segmenting voxels fully within the lumen of the descending aorta as identified on early PET frames and coregistered CT projections. […]

GLP1R in the pancreas = biological target: T2, GLP1R in the pancreas (Homo sapiens, UniProt P43220); format: in vivo; settings: humans with T2D, peptide dose less than 0.2 µg/kg; no negative correlation between peptide mass dose and net Ki
T2 construct: underwent PET/CT scanning for GLP1R availability in the pancreas (^68Ga-exendin4); from tissue; host or cells: pancreas of living individuals with type 2 diabetes (in vivo PET/CT)
T2 sequence (P43220 24-463): as the sequence (F8V479 24-463) above, with N112S, S120F, G202S, V205L, F237L, R241W, V249I counted along it
Protocol: The PET assessments were performed 3 h after a standardized meal followed by fasting, to minimize the variability in GLP1 levels at the time of scanning. The individuals were examined over the abdomen with a Discovery MI PET/CT scanner (20-cm field of view; GE Healthcare). Low-dose CT was performed for attenuation correction and anatomic coregistration of PET images. The dose of the CT scan was limited by dosimetry considerations, given that each individual underwent up to 4 PET/CT examinations over the entire clinical study. A 0.5 MBq/kg target dose of ^68Ga-exendin4 (0.46 ± 0.03 MBq/kg, corresponding to 0.14 ± 0.04 μg of peptide per kilogram) was administered intravenously as a bolus. The amount of administered ^68Ga-exendin4 was based primarily on limiting the associated dose of DO3A-VS-exendin4 precursor peptide to below 0.2 μg/kg. This limit was imposed to minimize any self-blocking, and the cutoff was determined from the NHP dose escalation studies. Dynamic PET was initiated at administration and continued for 60 min. […] For 3 individuals, arterial sampling was performed at 5, 30, and 60 min after ^68Ga-exendin4 administration to measure the radioactivity in whole blood and plasma and to determine the metabolic stability of the tracer (the methods are shown in the supplemental materials, available at http://jnm.snmjournals.org) (17). […]

Substance: exendin4 [reference compound]
GLP1R agonist potency (GLP1R [1]): subnanomolar
affinity for GLP1R (GLP1R [2]): nanomolar

Substance: ^68Ga-DO3A-VS-exendin4 [^68Ga-exendin4]
Plasma-to-blood ratio ([3]; 5 min): 1.76 ± 0.06 1/1
Plasma-to-blood ratio ([3]; 0.5 h): 1.80 ± 0.05 1/1
Plasma-to-blood ratio ([3]; 1 h): 1.79 ± 0.05 1/1
plasma partitioning [3]: ≈ 1.8
affinity for GLP1R (GLP1R [2]; radiolabeled tracer): nanomolar range

dose inducing a 50% decrease in binding (in vivo half-maximal inhibitory concentration) (GLP1R [4]): approximately 0.45 µg/kg
self-blocking (GLP1R in the pancreas): negligible
Substance: DO3A-VS-exendin4
